Source: patent publication US5965434A, “Amphipathic PH sensitive compounds and delivery systems for delivering biologically active compounds” (priority 1994, dated 1999)

Key:
[1] = background; cited from earlier work
[2] = background; cited from earlier work; remark: listed apart in the source
[3] = pK by differential titration; conditions: 0.5% triton x-100
Procedure: 4-5 μmoles of compounds 1, 4, 5, 6 or 8 in a chloroform solution were dried in separate 1.5 ml microcentrifuge tubes under a vacuum overnight. The dried compounds were dissolved in […] of a 0.5% water solution of Triton X-100, pH 3.5. A 20 mM NaOH solution was added to each tube using a Dilutor 401 (Gilson Co.) and the pH was monitored using a Beckman .phi. 72 pH meter. The pKa's of the compounds were determined from differential titration curves. The transfections of the 3T3 cells were done with liposome preparations containing Dioleoylphosphatidylcholine as described above.

3T3 cells = assay: Transfection of plasmid pBS.RSVLux into 3T3 cells, luciferase activity; type: cell-based, mouse; conditions: Table 13
Procedure: Liposomes were prepared by mixing chloroform solutions of the different lipids in microcentrifuge tubes with a 1.5 ml and removing the chloroform by vacuum to produce the dried lipid films. Tubes were placed under vacuum overnight to remove solvent traces. The amounts of cationic lipids in all cases were 1.34 mmol/ml with different amounts of other lipids as specified. One ml of sterile 10 mM HEPES buffer, pH 7.8, was added, and the tubes were sealed and vortexed for 1 min at room temperature and sonicated to obtain a clear emulsion.
The following cell lines were used: mouse 3T3 fibroblasts, COS cells (monkey kidney cell line transformed with the SV40 T ag), HeLa (human carcinoma cells), HepG2 (human hepatoma cell), 293 (monkey kidney cell line transformed with the adenovirus E1 gene ) were maintained in Dulbeco's Modified MEM media supplemented with 10% fetal calf serum. All cultures were maintained in a humidified atmosphere of 5% CO2 in air at 37° C. The cells were seeded in a 6-well plate (35 mm culture dishes) or a 12 well-plate (25 mm culture dishes) 24 h before the transfection at 70% confluence. Before transfection, the cells was washed once with Opti-MEM. In case of the 35 mm culture dishes, four μg of plasmid DNA (containing the luciferase or β-galactosidase reporter genes described below) in 0.75 ml of Opti-MEM was mixed with various amounts of liposomes in 0.75 ml of Opti-MEM. In case of the 25 mm culture dishes, one or two μg DNA in 400 μl of Opti-MEM was mixed with 400 μl of liposomes in 400 μl of Opti-MEM. The mixtures were incubated for 30 min at room temperature prior to being added to the cells in the culture dish. […]
The firefly luciferase and E. coli β-galactosidase reporter genes were used to determine the efficiency of DNA transfer quantitatively. […]
For determination of luciferase activity, cells were lysed by the addition of 100 ml for 25 mm plates and 200 μl for 35 mm plates of lysis buffer (0.1% Triton X-100, 0.1M K-phosphate, 1 mM DTT, pH 7.8). 20 μl of the cellular extract were analyzed for luciferase activity. […]

[4] = Dioleoylphosphatidylcholine content 1:1

SMILES	Cytotoxicity [1]	pKa [3]	further results
CCCCCCCC/C=C\CCCCCCCC(=O)OC[C@H](COC(=O)CCC[N+](C)(C)C)OC(=O)CCCCCCC/C=C\CCCCCCCC [DOTB, 1,2-dioleoyl-3-(4'-trimethylammonio)butanoyl-sn-glycerol]	no evidence of reduced cytotoxicity		
CCCCCCCC/C=C\CCCCCCCC(=O)OCC(C[N+](C)(C)C)OC(=O)CCCCCCC/C=C\CCCCCCCC (centres unmarked) [DOTAP, 1,2-Bis(oleoyloxy)-3-(4'-trimethylammonio)propane]	no evidence of reduced cytotoxicity		Inhibition of transfection by serum [2]: inhibits transfection to some extent
CCCCCCCCCCCCCCCC[N+](C)(C)C.[Br-] [CTAB, cetyltrimethylammonium bromide]	significant cytotoxicity		
CCCCCCCCCCCCCCCC(=O)OCC(CNc1ccncc1)OC(=O)CCCCCCCCCCCCCCC (centres unmarked) [Compound 8]		5.3	Relative Transfection Efficiency (Lipofectin = 1.0) (3T3 cells; [4]): 7.68
CC(C)CCC[C@@H](C)[C@H]1CC[C@H]2[C@@H]3CC=C4C[C@@H](OC(=O)NCCCn5ccnc5)CC[C@]4(C)[C@H]3CC[C@]12C [Compound 6]		6	Relative Transfection Efficiency (Lipofectin = 1.0) (3T3 cells; [4]): 0.23
CCCCCCCCCCCCCCCCCCN [Stearylamine]	great cytotoxicity		
CC(C)CCC[C@@H](C)[C@H]1CC[C@H]2[C@@H]3CC=C4C[C@@H](OC(=O)CCC[N+](C)(C)C)CC[C@]4(C)[C@H]3CC[C@]12C [ChoTB, cholesteryl (4'-trimethylammonio)butanoate]	no evidence of reduced cytotoxicity		
CCCCCCCC/C=C\CCCCCCCC(=O)OC[C@H](COC(=O)CCC(=O)OCC[N+](C)(C)C)OC(=O)CCCCCCC/C=C\CCCCCCCC [DOSC, 1,2-dioleoyl-3-succinyl-sn-glycerol choline ester]	no evidence of reduced cytotoxicity		
CCCCCCCCCCCCCCCC(=O)OCC(CSc1nccn1C)OC(=O)CCCCCCCCCCCCCCC (centres unmarked) [Compound 4]		< 3.5	
CC(C)CCC[C@@H](C)[C@H]1CC[C@H]2[C@@H]3CC=C4C[C@@H](SSCCN)CC[C@]4(C)[C@H]3CC[C@]12C [Compound 5]		6.8	Relative Transfection Efficiency (Lipofectin = 1.0) (3T3 cells; Dioleoylphosphatidylcholine content 1:2): 0.84
